Experimental data reported in publication PMC6316187, “Synergistic AML Cell Death Induction by Marine Cytotoxin (+)-1(R), 6(S), 1’(R), 6’(S), 11(R), 17(S)-Fistularin-3 and Bcl-2 Inhibitor Venetoclax” (Marine Drugs, 2018).

Target: DNA methyltransferase 1 (DNMT1) (Homo sapiens, UniProt P26358)
Assay: in vitro DNMT activity/inhibition assay (Active Motif), […] ng purified DNMT1, colorimetric; […] compound
Format: biochemical

Chain of DNA methyltransferase 1 (DNMT1) (P26358 whole entry): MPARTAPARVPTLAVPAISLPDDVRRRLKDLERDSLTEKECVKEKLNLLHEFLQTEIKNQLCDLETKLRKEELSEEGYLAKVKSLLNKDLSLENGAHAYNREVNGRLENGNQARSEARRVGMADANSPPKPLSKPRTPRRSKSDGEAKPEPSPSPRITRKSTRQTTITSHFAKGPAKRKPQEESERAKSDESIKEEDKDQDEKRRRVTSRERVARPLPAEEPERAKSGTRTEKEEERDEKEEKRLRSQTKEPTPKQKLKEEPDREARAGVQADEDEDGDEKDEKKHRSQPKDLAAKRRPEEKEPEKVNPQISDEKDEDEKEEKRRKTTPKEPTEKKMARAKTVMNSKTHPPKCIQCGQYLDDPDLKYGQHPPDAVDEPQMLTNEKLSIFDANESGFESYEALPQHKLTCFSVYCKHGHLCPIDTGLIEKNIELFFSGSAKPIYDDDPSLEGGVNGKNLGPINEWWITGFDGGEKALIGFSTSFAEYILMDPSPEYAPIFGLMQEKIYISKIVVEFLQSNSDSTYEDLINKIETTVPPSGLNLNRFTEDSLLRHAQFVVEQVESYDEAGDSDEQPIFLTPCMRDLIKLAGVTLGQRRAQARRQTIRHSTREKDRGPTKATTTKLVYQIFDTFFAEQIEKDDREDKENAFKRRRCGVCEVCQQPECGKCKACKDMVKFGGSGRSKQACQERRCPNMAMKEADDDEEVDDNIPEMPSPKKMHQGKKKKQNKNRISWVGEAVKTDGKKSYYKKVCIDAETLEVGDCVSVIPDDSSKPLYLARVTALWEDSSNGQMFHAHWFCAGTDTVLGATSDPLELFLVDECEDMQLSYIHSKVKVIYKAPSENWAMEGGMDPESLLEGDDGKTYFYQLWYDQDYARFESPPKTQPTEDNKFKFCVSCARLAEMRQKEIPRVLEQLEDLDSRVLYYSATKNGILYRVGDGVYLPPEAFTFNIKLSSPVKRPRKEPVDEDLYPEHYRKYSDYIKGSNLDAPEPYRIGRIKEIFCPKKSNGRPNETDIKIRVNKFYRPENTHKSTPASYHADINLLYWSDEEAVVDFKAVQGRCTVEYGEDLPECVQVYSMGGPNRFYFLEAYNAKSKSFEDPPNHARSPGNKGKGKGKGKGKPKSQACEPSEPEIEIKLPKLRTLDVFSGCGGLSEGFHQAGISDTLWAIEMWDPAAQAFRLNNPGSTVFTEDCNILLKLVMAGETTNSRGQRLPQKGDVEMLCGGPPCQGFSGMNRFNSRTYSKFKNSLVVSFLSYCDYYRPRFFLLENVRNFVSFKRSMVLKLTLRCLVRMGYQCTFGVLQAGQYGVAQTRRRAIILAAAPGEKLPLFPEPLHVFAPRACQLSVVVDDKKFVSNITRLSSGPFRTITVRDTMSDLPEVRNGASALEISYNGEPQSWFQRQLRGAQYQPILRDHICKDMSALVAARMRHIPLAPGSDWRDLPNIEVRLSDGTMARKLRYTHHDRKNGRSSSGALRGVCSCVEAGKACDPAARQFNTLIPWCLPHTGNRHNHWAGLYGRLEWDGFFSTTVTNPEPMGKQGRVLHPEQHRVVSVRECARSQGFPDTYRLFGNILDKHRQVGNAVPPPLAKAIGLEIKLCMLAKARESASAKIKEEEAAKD

COC1=C(Br)[C@H](O)[C@@]2(C=C1Br)CC(C(=O)NC[C@@H](O)COc1c(Br)cc([C@H](O)CNC(=O)C3=NO[C@]4(C=C(Br)C(OC)=C(Br)[C@@H]4O)C3)cc1Br)=NO2 [RS-F3, (+)-11(R), 17(S)-fistularin-3]
inhibition at 50 µM: ~25%
